{
  "source": "patent US6309839A",
  "about": "“Screening methods for compounds that inhibit or stimulate helicase enzyme activity” (Board of Trustees of the University of Arkansas, priority 2000, dated 2001)",
  "origin": "cited, not measured here",
  "target": "streptavidin (Streptomyces avidinii, UniProt P22629)",
  "sequence (P22629 25-183)": "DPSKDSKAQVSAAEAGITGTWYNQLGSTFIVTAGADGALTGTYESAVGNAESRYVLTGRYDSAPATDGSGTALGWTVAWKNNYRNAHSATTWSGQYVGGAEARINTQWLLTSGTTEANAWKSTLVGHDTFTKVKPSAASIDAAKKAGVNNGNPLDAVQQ",
  "conditions": "no helicase present",
  "data": [
    {"smiles": "O=C(O)CCCC[C@@H]1SC[C@@H]2NC(=O)N[C@@H]21", "note": "[biotin]", "values": [
      {"measurement": "spontaneous dissociation rate of streptavidin from biotin", "value": 0.00033, "unit": "min⁻¹"}
    ]}
  ]
}
